The values that follow come from publication PMC4689404, “2-Benzazolyl-4-Piperazin-1-Ylsulfonylbenzenecarbohydroxamic Acids as Novel Selective Histone Deacetylase-6 Inhibitors with Antiproliferative Activity” (PLoS ONE, 2015).

Broadly, the GI50 is the concentration that inhibits growth by half.

Experiment in all cases: NCI 60 screen, five dose
What all share (assay type): cell-based

The test system of one assay is K-562. Particulars: Homo sapiens, K562, Leukemia, GI50 = molar concentration, read-out: Log10 GI50 (converted).
The subject of a further assay is MDA-MB-468. Particulars: Homo sapiens, Breast Cancer, GI50 = molar concentration, read-out: Log10 GI50 (converted).
In another assay the test system is HS 578T. The settings on record: Homo sapiens, Breast Cancer, GI50 = molar concentration, read-out: Log10 GI50 (converted).
A further assay concerns OVCAR-3. The settings on record: Homo sapiens, Ovarian Cancer, GI50 = molar concentration, read-out: Log10 GI50 (converted).
A further assay relates to MOLT-4. The settings on record: Homo sapiens, Leukemia, GI50 = molar concentration, read-out: Log10 GI50 (converted).

For `O=C(NO)c1ccc(S(=O)(=O)N2CCN(c3nc4ccccc4o3)CC2)cc1` [Compound 9c, 4-(4-Benzoxazol-2-yl-piperazin-1-sulfonyl)-N -hydroxy-benzamid], the GI50 with K-562 is 6.31 µM; with MDA-MB-468 it was 11 µM.
For `O=C(NO)c1ccc(S(=O)(=O)N2CCN(c3nc4ccccc4s3)CC2)cc1` [Compound 9d, 4-(4-Benzothiazol-2-yl-piperazin-1-sulfonyl)-N -hydroxy-benzamid], the GI50 is 1.45 µM in the assay with HS 578T, 3.02 µM with OVCAR-3 and 3.02 µM in the assay on MOLT-4.
